In paper PMC9788509, “Arginine Homopeptide of 11 Residues as a Model of Cell-Penetrating Peptides in the Interaction with Bacterial Membranes” (Membranes, 2022):
No end group written: not given here.

These molecules were tested on Staphylococcus aureus (ATCC 25923). Conditions: S. aureus ATCC 25923; 1 × 10^7 CFU/mL; 1% TSB, 10 mM Hepes; 10, 20 and 30 μM peptide, 1 h at 37 °C; serial dilution, 18 h at 37 °C in complete TSB; turbidity; duplicate.
Type: cell-based
Protocol: (§1) The strains used, Staphylococcus aureus (ATCC 25923) and Escherichia coli (ML35), were obtained from the Public Health Institute of Chile (ISP).
(§2) To determine the antibacterial activity of the peptides, a microplate dilution test was performed. The necessary calculations were completed with a bacterial concentration of 1 × 10^7 CFU/mL and the cells were exposed to 50 µL of Tryptic soy broth (TSB) with 1%, 10 mM of Hepes buffer and 10, 20 and 30 μM of peptide for 1 h at 37 °C. Finally, a serial dilution was performed and incubated for 18 h at 37 °C in complete TSB, and the minimum bactericidal concentration (MCB) was determined depending on the turbidity of the plate. All experiments were completed in duplicate. A synthetic peptide of sequence KKWRWWLKALAKK from the venom of the Bothrops asper snake was used as a positive control for growth inhibition.

Molecule	Minimum Bactericidal Concentration [µM]
CC(C)C[C@H](N)C(=O)N[C@@H](CCCNC(=N)N)C(=O)N[C@@H](CCCNC(=N)N)C(=O)N[C@@H](CCCNC(=N)N)C(=O)N[C@@H](CCCNC(=N)N)C(=O)N[C@@H](CCCNC(=N)N)C(=O)N[C@@H](CCCNC(=N)N)C(=O)N[C@@H](CCCNC(=N)N)C(=O)N[C@@H](CCCNC(=N)N)C(=O)N[C@@H](CCCNC(=N)N)C(=O)N[C@@H](CCCNC(=N)N)C(N)=O [L1]	9
N=C(N)NCCC[C@H](NC(=O)[C@H](CCCNC(=N)N)NC(=O)[C@H](CCCNC(=N)N)NC(=O)[C@H](CCCNC(=N)N)NC(=O)[C@H](CCCNC(=N)N)NC(=O)[C@@H](N)CCCNC(=N)N)C(=O)N[C@@H](CCCNC(=N)N)C(=O)N[C@@H](CCCNC(=N)N)C(=O)N[C@@H](CCCNC(=N)N)C(=O)N[C@@H](CCCNC(=N)N)C(=O)N1CCC[C@H]1C(N)=O [P11]	18
N=C(N)NCCC[C@H](NC(=O)[C@H](CCCNC(=N)N)NC(=O)[C@H](CCCNC(=N)N)NC(=O)[C@H](CCCNC(=N)N)NC(=O)[C@H](CCCNC(=N)N)NC(=O)[C@H](CCCNC(=N)N)NC(=O)[C@H](CCCNC(=N)N)NC(=O)[C@H](CCCNC(=N)N)NC(=O)[C@H](CCCNC(=N)N)NC(=O)[C@H](CCCNC(=N)N)NC(=O)[C@@H](N)Cc1c[nH]c2ccccc12)C(N)=O [W1]	>30

The molecules below were run on Escherichia coli (ML35). Conditions: E. coli ML35; 1 × 10^7 CFU/mL; 1% TSB, 10 mM Hepes; 10, 20 and 30 μM peptide, 1 h at 37 °C; serial dilution, 18 h at 37 °C in complete TSB; turbidity; duplicate.
Type: cell-based
Protocol: as §1, §2

Molecule	Minimum Bactericidal Concentration [µM]
C[C@H](N)C(=O)N[C@@H](CCCNC(=N)N)C(=O)N[C@@H](CCCNC(=N)N)C(=O)N[C@@H](CCCNC(=N)N)C(=O)N[C@@H](CCCNC(=N)N)C(=O)N[C@@H](CCCNC(=N)N)C(=O)N[C@@H](CCCNC(=N)N)C(=O)N[C@@H](CCCNC(=N)N)C(=O)N[C@@H](CCCNC(=N)N)C(=O)N[C@@H](CCCNC(=N)N)C(=O)N[C@@H](CCCNC(=N)N)C(N)=O [A1]	>30
CC(C)C[C@H](N)C(=O)N[C@@H](CCCNC(=N)N)C(=O)N[C@@H](CCCNC(=N)N)C(=O)N[C@@H](CCCNC(=N)N)C(=O)N[C@@H](CCCNC(=N)N)C(=O)N[C@@H](CCCNC(=N)N)C(=O)N[C@@H](CCCNC(=N)N)C(=O)N[C@@H](CCCNC(=N)N)C(=O)N[C@@H](CCCNC(=N)N)C(=O)N[C@@H](CCCNC(=N)N)C(=O)N[C@@H](CCCNC(=N)N)C(N)=O [L1]	13
CC(C)C[C@H](NC(=O)[C@H](CCCNC(=N)N)NC(=O)[C@H](CCCNC(=N)N)NC(=O)[C@H](CCCNC(=N)N)NC(=O)[C@H](CCCNC(=N)N)NC(=O)[C@H](CCCNC(=N)N)NC(=O)[C@H](CCCNC(=N)N)NC(=O)[C@H](CCCNC(=N)N)NC(=O)[C@H](CCCNC(=N)N)NC(=O)[C@H](CCCNC(=N)N)NC(=O)[C@@H](N)CCCNC(=N)N)C(N)=O [L11]	30
N=C(N)NCCC[C@H](NC(=O)[C@H](CCCNC(=N)N)NC(=O)[C@H](CCCNC(=N)N)NC(=O)[C@H](CCCNC(=N)N)NC(=O)[C@H](CCCNC(=N)N)NC(=O)[C@H](CCCNC(=N)N)NC(=O)[C@H](CCCNC(=N)N)NC(=O)[C@H](CCCNC(=N)N)NC(=O)[C@H](CCCNC(=N)N)NC(=O)[C@H](CCCNC(=N)N)NC(=O)[C@@H]1CCCN1)C(N)=O [P1]	18
N=C(N)NCCC[C@H](NC(=O)[C@H](CCCNC(=N)N)NC(=O)[C@H](CCCNC(=N)N)NC(=O)[C@H](CCCNC(=N)N)NC(=O)[C@H](CCCNC(=N)N)NC(=O)[C@@H](N)CCCNC(=N)N)C(=O)N[C@@H](CCCNC(=N)N)C(=O)N[C@@H](CCCNC(=N)N)C(=O)N[C@@H](CCCNC(=N)N)C(=O)N[C@@H](CCCNC(=N)N)C(=O)N1CCC[C@H]1C(N)=O [P11]	30
N=C(N)NCCC[C@H](NC(=O)[C@H](CCCNC(=N)N)NC(=O)[C@H](CCCNC(=N)N)NC(=O)[C@H](CCCNC(=N)N)NC(=O)[C@H](CCCNC(=N)N)NC(=O)[C@H](CCCNC(=N)N)NC(=O)[C@H](CCCNC(=N)N)NC(=O)[C@H](CCCNC(=N)N)NC(=O)[C@H](CCCNC(=N)N)NC(=O)[C@H](CCCNC(=N)N)NC(=O)[C@@H](N)CCCNC(=N)N)C(N)=O [R11]	30
N=C(N)NCCC[C@H](NC(=O)[C@H](CCCNC(=N)N)NC(=O)[C@H](CCCNC(=N)N)NC(=O)[C@H](CCCNC(=N)N)NC(=O)[C@H](CCCNC(=N)N)NC(=O)[C@H](CCCNC(=N)N)NC(=O)[C@H](CCCNC(=N)N)NC(=O)[C@H](CCCNC(=N)N)NC(=O)[C@H](CCCNC(=N)N)NC(=O)[C@H](CCCNC(=N)N)NC(=O)[C@@H](N)Cc1c[nH]c2ccccc12)C(N)=O [W1]	30
RARRRRRRRRR-NH2 [A2]	18
RPRRRRRRRRR-NH2 [P2]	30
RRARRRRRRRR-NH2 [A3]	10
RRRRARRRRRR-NH2 [A5]	20
RRRRRARRRRR-NH2 [A6]	26
RRRRRPRRRRR-NH2 [P6]	18
RRRRRRARRRR-NH2 [A7]	20
RRRRRRLRRRR-NH2 [L7]	9
RRRRRRRARRR-NH2 [A8]	30
RRRRRRRRARR-NH2 [A9]	>30
RRRRRRRRLRR-NH2 [L9]	8
RRRRRRRRRLR-NH2 [L10]	20
